According to patent publication US4211769A, “Preparations for vaginal administration” (Takeda Chemical Industries, Ltd., priority 1977, dated 1980):
Like-named read-outs stand apart in the source and are kept apart here.

Experiments:
matured female SD rats = format: in vivo, rat; conditions: vaginal, aqueous solution with 10% citric acid at pH 2.0
Description: A synthetic peptide (monoacetate.pentahydrate; (Pyr)Glu-His-Trp-Ser-Tyr-D-Leu-Leu-Arg-Pro-NH-C2 H5) was dissolved in aliquots of Clark-Lubs buffer [J. Bact. 2, (1), 109, 191(1971) [or Sorensen's buffer [Ergeb.Physiol. 12, 3931 (1912)] at pH 2-7 and each solution was supported on a piece (substantially-predetermined volume) of cotton and administered into the vaginas of rats to investigate the pH dependence of the ovulation-stimulating activity of the peptide.
Using matured female SD rats (120-150 days, body weights from 250 to 350 g), each preparation was vaginally administered during the diestrus and the animal was autopsied next morning to check for the occurrence of ovulation based on the presence or absence of ova in the ampulla.
The same peptide as that used in Example 12 was dissolved in 0.238 mol/liter aqueous solutions of various water-soluble aliphatic carboxylic acids which had been previously adjusted to pH 3.5 with small amounts of 10 N--NaOH. […]
The same peptide as used in Example 12 was employed as the active component. Citric acid was added to aliquots of phthalate buffer (pH 3.5) at the levels of addition of 1, 2, 5, 7 and 10% (W/V) and the pH of each solution was readjusted to pH 3.5 with a small amount of concentrated NaOH. […]

rat = format: in vivo
Excerpt: In terms of ovulation-stimulating action, a 30 times increase of stimulating effect was obtained over the control (without carboxylic acid) in the case of natural type LH-RH (Table 1). […] It is clear that a given pharmacological effect can be obtained at a dose equivalent to 5.2 times the intravenous dose or 3.1 times the subcutaneous dose. […] In view of these facts, it is obvious that the vaginal administration according to this invention is a very advantageous method of medication.
Thus, to achieve a given ovulation-stimulatingactivity, the vaginal preparation according to this invention requires only 2.6 times as much of peptide as by the intravenous route and 1.7 times as much of peptide as by the subcutaneous route. The unusual effectiveness of the vaginal preparation of this invention will also be apparent in view of the fact that oral administration requires 1900 times as much of peptide as by the intravenous route, rectal administration requires 82 times the dosage by the intravenous route, and vaginal administration with the oleaginous basis (Witepsol® S55) requires 26 times as much of peptide as by the intravenous route.

## CCNC(=O)[C@@H]1CCCN1C(=O)[C@H](CCCNC(=N)N)NC(=O)[C@H](CC(C)C)NC(=O)[C@@H](CC(C)C)NC(=O)[C@H](Cc1ccc(O)cc1)NC(=O)[C@H](CO)NC(=O)[C@H](Cc1c[nH]c2ccccc12)NC(=O)[C@H](Cc1c[nH]cn1)NC(=O)[C@@H]1CCC(=O)N1 [peptide of Example 12, (Pyr)Glu-His-Trp-Ser-Tyr-D-Leu-Leu-Arg-Pro-NH-C2 H5]
Matured female SD rats
  ED50, ovulation-stimulating activity: 9.9 ng/100 g (body weight of rat)
rat; intravenous route
  ED50, ovulation-stimulating activity: 3.8 ng/100 g (body weight of rat)
rat; subcutaneous route
  ED50, ovulation-stimulating activity: 5.8 ng/100 g (body weight of rat)
